According to patent US11746116B2, “Antibiotic resistance breakers” (KING'S COLLEGE LONDON, priority 2017, dated 2023):
In brackets after ≈: the same amount, converted by molar mass. Like-named read-outs stand apart in the source and are kept apart here. Values belong to the compound of their own block, whether it stands above or below them.

Columns and labels:
Experiment in all cases: MIC, microdilution broth method
[1] = tested on: EC12923; assay type: cell-based; details: for MIC, EC12923: ESKAPE panel, Gram-negative
[2] = tested on: VSE775; assay type: cell-based, Enterococcus faecalis; parameters: MIC, VSE775: unit not given beside the values; details: for MIC, VSE775: ESKAPE panel, Gram-positive
[3] = tested on: MSSA9144; assay type: cell-based, Staphylococcus aureus; details: for MIC, MSSA9144: ESKAPE panel, Gram-positive
[4] = tested on: EMRSA15; assay type: cell-based, Staphylococcus aureus
[5] = tested on: AYE; assay type: cell-based, Acinetobacter baumannii; details: for MIC, AYE: ESKAPE panel, Gram-negative
[6] = tested on: Ab17978; assay type: cell-based; details: for MIC, Ab17978: ESKAPE panel, Gram-negative
[7] = tested on: KP13368; assay type: cell-based; details: for MIC, KP13368: ESKAPE panel, Gram-negative
[8] = tested on: M6; assay type: cell-based; details: for MIC, M6: ESKAPE panel, Gram-negative
[9] = tested on: PA01; assay type: cell-based, Pseudomonas aeruginosa; details: for MIC, PA01: ESKAPE panel, Gram-negative
[10] = tested on: VRE12204; assay type: cell-based, Enterococcus faecium; details: in µg/mL; for MIC: VRE12204; for MIC, VRE12204: ESKAPE panel, Gram-positive
[11] = tested on: VRE12201; assay type: cell-based, Enterococcus faecalis; details: for MIC, VRE12201: ESKAPE panel, Gram-positive
[12] = tested on: EMRSA16; assay type: cell-based, Staphylococcus aureus
[13] = tested on: PA13437; assay type: cell-based; details: for MIC, PA13437: ESKAPE panel, Gram-negative; for MIC: PA13437
[14] = AYE, Normal (no PMBN), in µg/mL
[15] = Ab17978, Normal (no PMBN), in µg/mL
[16] = KP13368, Normal (no PMBN), in µg/mL
[17] = PA01, Normal (no PMBN), in µg/mL
[18] = ESKAPE panel, Gram-positive, in µg/mL

Compound: C[C@H]1COc2c(N3CCCN(c4cnccn4)CC3)c(F)cc3c(=O)c(C(=O)O)cn1c23 [ML-83-041 (5.16), (S)-9-fluoro-3-methyl-7-oxo-10-(4-(pyrazin-2-yl)-1,4-diazepan-1-yl)-2,3-dihydro-7H-[1,4]oxazino[2,3,4-ij]quinoline-6-carboxylic acid]
MIC ([1]; EC12923, in µg/mL): 1-2 | MIC ([2]; VSE775, in µg/mL): 1 | MIC ([3]; MSSA9144, in µg/mL): ≤0.125 | MIC ([4]; EMRSA15, in µg/mL): 4-8 | MIC [5, 14]: 64-128 | MIC [6, 15]: 1 | MIC [7, 16]: 16-32 | MIC ([8]; M6, Normal (no PMBN), in µg/mL): 2 | MIC [9, 17]: 16-32 | MIC [10]: 4 | MIC ([11]; VRE12201, in µg/mL): 0.5-1 | MIC ([12]; EMRSA16, in µg/mL): 8

Compound: C[C@H]1COc2c(N3CC[C@H](Nc4ncccn4)C3)c(F)cc3c(=O)c(C(=O)O)cn1c23 [KSN-L19]
MIC, EC12923 ([1]; in µg/mL): 4 | MIC, VSE775 [2]: 2 | MIC, MSSA9144 ([3]; in µg/mL): 0.25 | MIC, EMRSA15 [4, 18]: 8 | MIC, AYE ([5]; in µg/mL): >32 | MIC, Ab17978 ([6]; in µg/mL): 4 | MIC, KP13368 [7]: > 32 µg/mL | MIC, M6 ([8]; in µg/mL): 4 | MIC, PA13437 [13]: > 32 µg/mL | MIC, PA01 ([9]; in µg/mL): >32 | MIC, VRE12204 [10]: 4 | MIC, VRE12201 ([11]; in µg/mL): 1 | MIC, EMRSA16 [12, 18]: 8

Compound: C[C@H]1COc2c(N3CCC(Nc4ncccn4)C3)c(F)cc3c(=O)c(C(=O)O)cn1c23 (stereo partly drawn) [Compound 82-KSN-L7, (3S)-9-fluoro-3-methyl-7-oxo-10-(3-(pyrimidin-2-ylamino)-pyrrolidin-1-yl)-2,3-dihydro-7H-[1,4]oxazino[2,3,4-ij]quinoline-6-carboxylic acid]
MIC ([1]; EC12923, in µg/mL): 1 | MIC ([2]; VSE775, in µg/mL): 1-2 | MIC ([3]; MSSA9144, in µg/mL): ≤0.125-4 | MIC ([4]; EMRSA15, in µg/mL): 4 | MIC [5, 14]: 64 | MIC [6, 15]: 1 | MIC [7, 16]: 16 | MIC ([8]; M6, Normal (no PMBN), in µg/mL): 2-4 | MIC [9, 17]: 16 | MIC [10]: 4 | MIC ([11]; VRE12201, in µg/mL): 0.5 | MIC ([12]; EMRSA16, in µg/mL): 4

Compound: C[C@H]1COc2c(N3CCN(c4ccncn4)CC3)c(F)cc3c(=O)c(C(=O)O)cn1c23 [ML-83-001, (S)-9-fluoro-3-methyl-7-oxo-10-(4-(pyrimidin-4-yl)piperazin-1-yl)-2,3-dihydro-7H-[1,4]oxazino[2,3,4-ij]quinoline-6-carboxylic acid]
MIC ([2]; VSE775, in µg/mL): 0.25 | MIC ([3]; MSSA9144, in µg/mL): 0.06 | MIC ([4]; EMRSA15, in µg/mL): 4 | MIC ([5]; AYE, +PMBN, in µg/mL): 64 | MIC ([6]; Ab17978, +PMBN, in µg/mL): 1 | MIC [6, 15]: 4 | MIC ([7]; KP13368, +PMBN, in µg/mL): 4 | MIC [7, 16]: 64 | MIC ([8]; M6, +PMBN, in µg/mL): 0.5 | MIC ([8]; M6, Normal (no PMBN), in µg/mL): 8 | MIC ([13]; +PMBN): 32 µg/mL (≈ 75.2 µM) | MIC ([9]; PA01, +PMBN, in µg/mL): 1 | MIC [9, 17]: 32 | MIC [10]: 2 | MIC ([11]; VRE12201, in µg/mL): 0.25 | MIC ([12]; EMRSA16, in µg/mL): 4

Compound: CCn1cc(C(=O)O)c(=O)c2cc(F)c(N3CCN(Cc4cc(=O)[nH]c5ccccc45)CC3)cc21 [ML-77-059]
MIC ([2]; VSE775, in µg/mL): >32 | MIC ([3]; MSSA9144, in µg/mL): 16-32 | MIC ([4]; EMRSA15, in µg/mL): >32 | MIC [5, 14]: >32 | MIC [6, 15]: 32 | MIC [7, 16]: >32 | MIC ([8]; M6, Normal (no PMBN), in µg/mL): 16 | MIC ([13]; Normal (no PMBN)): > 32 µg/mL | MIC [9, 17]: >32 | MIC [10]: >32 | MIC ([11]; VRE12201, in µg/mL): >32 | MIC ([12]; EMRSA16, in µg/mL): >32

Further lines, results first:

MIC, EC12923 ([1]; in µg/mL): ≤0.125 | MIC, VSE775 [2]: 1-4 | MIC, MSSA9144 ([3]; in µg/mL): 0.25 | MIC, EMRSA15 [4, 18]: 32 | MIC, Ab17978 ([6]; in µg/mL): 2 | MIC, KP13368 [7]: 4 µg/mL (≈ 11.5 µM) | MIC, M6 ([8]; in µg/mL): ≤0.125 | MIC, PA13437 [13]: 32 µg/mL (≈ 92.1 µM) | MIC, PA01 ([9]; in µg/mL): 0.25-0.5 | MIC, VRE12204 [10]: 1 | MIC, VRE12201 ([11]; in µg/mL): 0.5-1 | MIC, EMRSA16 [12, 18]: 32
Compound: C[C@H]1COc2c(N3CC[C@@H](N)C3)c(F)cc3c(=O)c(C(=O)O)cn1c23 [KSN-L44-D, (S)-10-((R)-3-aminopyrrolidin-1-yl)-9-fluoro-3-methyl-7-oxo-2,3-dihydro-7H-[1,4]oxazino[2,3,4-ij]quinoline-6-carboxylic acid]

MIC, EC12923 ([1]; in µg/mL): 0.25-0.5 | MIC ([1]; Escherichia coli (EC12923), Gram-Negative, read-out: MIC): 0.25 µg/mL (≈ 0.588 µM) | MIC, VSE775 [2]: ≤0.125 | MIC ([2]; Enterococcus faecalis, Enterococcus (VRE775), Gram-Positive, read-out: MIC): ≤ 0.125 µg/mL | MIC, MSSA9144 ([3]; in µg/mL): ≤0.125 | MIC ([3]; Staphylococcus aureus (MSSA9144), Gram-Positive, read-out: MIC): ≤ 0.125 µg/mL | MIC, EMRSA15 ([4]; EMRSA15 (Table 16, role of the terminal pyrimidine ring), in µg/mL): 1 | MIC, EMRSA15 [4, 18]: 1 | MIC ([4]; Staphylococcus aureus, Staphylococcus aureus (EMRSA15), Gram-Positive (Table 14), read-out: MIC): 1 µg/mL (≈ 2.35 µM) | MIC ([5]; Acinetobacter baumannii (AYE), Gram-Negative, read-out: MIC): 8 µg/mL (≈ 18.8 µM) | MIC, AYE ([5]; in µg/mL): 8 | MIC ([6]; Acinetobacter baumannii (AB17978), Gram-Negative, read-out: MIC): 0.25 µg/mL (≈ 0.588 µM) | MIC, Ab17978 ([6]; in µg/mL): 0.25 | MIC, KP13368 [7]: 8 µg/mL (≈ 18.8 µM) | MIC ([7]; Klebsiella pneumoniae (KP13368), Gram-Negative, read-out: MIC): 8 µg/mL (≈ 18.8 µM) | MIC, M6 ([8]; in µg/mL): 0.5 | MIC ([8]; Klebsiella pneumoniae (M6), Gram-Negative, read-out: MIC): 0 to 5 µg/mL | MIC, PA01 ([9]; in µg/mL): 4 | MIC ([9]; Pseudomonas aeruginosa (PA01), Gram-Negative, read-out: MIC): 4 µg/mL (≈ 9.4 µM) | MIC, VRE12204 [10]: 0.5 | MIC, VRE12201 ([11]; in µg/mL): ≤0.125 | MIC ([11]; Enterococcus faecalis, Enterococcus (VRE12201), Gram-Positive, read-out: MIC): ≤ 0.125 µg/mL | MIC, EMRSA16 ([12]; EMRSA16 (Table 16, role of the terminal pyrimidine ring), in µg/mL): 1 | MIC, EMRSA16 [12, 18]: 1 | MIC ([12]; Staphylococcus aureus (EMRSA16), Gram-Positive (Table 14), read-out: MIC): 1 µg/mL (≈ 2.35 µM)
Compound: C[C@H]1COc2c(N3CC[C@@H](Nc4cnccn4)C3)c(F)cc3c(=O)c(C(=O)O)cn1c23 [KSN-BL1, (S)-9-fluoro-3-methyl-7-oxo-10-((R)-3-(pyrazin-2-ylamino)pyrrolidin-1-yl)-2,3-dihydro-7H-[1,4]oxazino[2,3,4-ij]quinoline-6-carboxylic acid]

MIC, EC12923 ([1]; in µg/mL): 1 | MIC, VSE775 [2]: ≤0.125 | MIC, MSSA9144 ([3]; in µg/mL): ≤0.125 | MIC, EMRSA15 [4, 18]: 1 | MIC, AYE ([5]; in µg/mL): 4 | MIC, Ab17978 ([6]; in µg/mL): 0.25 | MIC, KP13368 [7]: 16 µg/mL (≈ 36.3 µM) | MIC, M6 ([8]; in µg/mL): 1 | MIC, PA01 ([9]; in µg/mL): 8 | MIC, VRE12204 [10]: 1 | MIC, VRE12201 ([11]; in µg/mL): ≤0.125 | MIC, EMRSA16 [12, 18]: 4
Compound: C[C@H]1COc2c(N3CC[C@H](Nc4ncc(N)cn4)C3)c(F)cc3c(=O)c(C(=O)O)cn1c23 [KSN-L62, (S)-10-((S)-3-((5-aminopyrimidin-2-yl)amino)pyrrolidin-1-yl)-9-fluoro-3-methyl-7-oxo-2,3-dihydro-7H-[1,4]oxazino[2,3,4-ij]quinoline-6-carboxylic acid]
